From ChEMBL document CHEMBL1201862, “PubChem BioAssay data set” (2004) come the findings set out here.

Among the test systems are NCI-H23; HCT-116; OVCAR-3; SF-539; DMS-273; HT-29; NCI-H226; SN12C; SW-620; HCC 2998; UO-31; SF-268; HOP-92; A498; MCF7; LOX IMVI; HL-60; TK-10; SR; M14.
Holding throughout (experiment): NCI-60 cell line screen, 48 h

Structures are written as SMILES.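 48-hour exposure; five concentrations; linearly interpolated endpoints. Here, GI50 denotes the concentration required for 50% inhibition of growth.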 The source made the active and inactive calls. Rule as the data show it: active = GI50 up to about 1.1 µM and inactive = higher.

Regarding `O=S(=O)(CCBr)CCBr`, the GI50 in the assay with NCI-H23 is 6.52 µM (inactive); in the assay on HCT-116, 3.37 µM (inactive); in the assay on OVCAR-3 it was 3.67 µM (inactive); with SF-539, 6.22 µM (inactive); with DMS-273, 4.59 µM (inactive); with HT-29, 5.94 µM (inactive). Moreover, the GI50 in the assay with NCI-H226 is 19.2 µM (inactive); with SN12C it was 9.02 µM (inactive); in the assay on SW-620, 2.23 µM (inactive); in the assay with HCC 2998, 6.95 µM (inactive); in the assay on UO-31, 30.8 µM (inactive); in the assay with SF-268 it was 3.99 µM (inactive). Moreover, the GI50 in the assay on HOP-92 is 6.21 µM (inactive); in the assay on A498, 6.3 µM (inactive); with MCF7 it was 4.91 µM (inactive); in the assay on LOX IMVI it was 7.67 µM (inactive); in the assay with HL-60, 2.59 µM (inactive).
For the compound `N#CCCN(CCC#N)c1ccc(/C=C2\N=C(c3cc([N+](=O)[O-])ccc3Cl)N(S(=O)(=O)c3ccccc3)C2=O)cc1`, the GI50 with TK-10, with NCI-H23, with HCT-116, with OVCAR-3, with SR and in the assay with SF-539 was > 100 µM (inactive) throughout. The GI50 in the assay with DMS-273, in the assay on NCI-H226, in the assay on SN12C, in the assay with SW-620, with HCC 2998 and in the assay with UO-31 was > 100 µM (inactive) throughout. Moreover, the GI50 in the assay with SF-268, with HOP-92 and with LOX IMVI was > 100 µM (inactive) each time.
Turning to `C1=CC=C2NCCCCCCC/N=C3/C=CC=CC=C3NCCCCCCC/N=C\2C=C1`, the GI50 is 11.9 µM (inactive) in the assay with NCI-H23; 39.1 µM (inactive) in the assay on HCT-116; 10 µM (inactive) in the assay with OVCAR-3; 63.5 µM (inactive) with SR; 30.9 µM (inactive) in the assay with SF-539; 19.1 µM (inactive) in the assay with DMS-273. The GI50 was 10 µM (inactive) in the assay with M14; 37.5 µM (inactive) in the assay on HT-29; > 100 µM (inactive) with NCI-H226; > 100 µM (inactive) in the assay with SN12C; 79.6 µM (inactive) with SW-620; > 100 µM (inactive) with HCC 2998. Also, the GI50 was > 100 µM (inactive) in the assay with UO-31; > 100 µM (inactive) in the assay on SF-268; 33.9 µM (inactive) in the assay on HOP-92; 54.2 µM (inactive) in the assay with LOX IMVI; 43.5 µM (inactive) in the assay on HL-60.
On to `CC(=O)C(=O)NC1/C=C(C)\C=C/C(O)C/C=C(C)\C=C/C(O)CC2OC(=O)C1(C)C(=O)C2C` (stereo not given), for which the GI50 in the assay with NCI-H23, with HCT-116, in the assay on OVCAR-3, in the assay with SF-539, in the assay with DMS-273 and in the assay on HT-29 was > 100 µM (inactive) each time. For the same compound, the GI50 in the assay with NCI-H226, in the assay on SN12C, in the assay on SW-620, in the assay on HCC 2998, with UO-31 and with SF-268 was > 100 µM (inactive) each time. For the same compound, the GI50 in the assay with HOP-92, with A498, with MCF7 and in the assay with LOX IMVI was > 100 µM (inactive) throughout.
For `CCN(CC)CCCOC(=O)/C=C/c1c(C)[nH]c(=O)[nH]c1=O`, the GI50 with NCI-H23 was > 625 µM (inactive); with HCT-116, > 625 µM (inactive); in the assay on OVCAR-3 it was > 625 µM (inactive); in the assay on SF-539 it was > 625 µM (inactive); with DMS-273, > 625 µM (inactive); with HT-29, > 394 µM (inactive). Moreover, the GI50 in the assay on NCI-H226 was > 625 µM (inactive); in the assay on SN12C, > 243 µM (inactive); in the assay on SW-620, > 625 µM (inactive); with HCC 2998 it was > 625 µM (inactive); with UO-31, > 625 µM (inactive); in the assay with SF-268, > 625 µM (inactive). Further, the GI50 was 56.9 µM (inactive) in the assay on HOP-92; > 95.1 µM (inactive) in the assay on A498; > 625 µM (inactive) with MCF7; > 625 µM (inactive) with LOX IMVI; > 625 µM (inactive) in the assay with HL-60.
Consider `CSc1nc(NC2OC(CO)C(O)C(O)C2O)c(N)c(=O)n1C` (stereo not given), for which the GI50 in the assay with NCI-H23, with HCT-116, with OVCAR-3, in the assay with SF-539, in the assay with DMS-273 and in the assay with HT-29 was > 100 µM (inactive) in each case. Besides, the GI50 in the assay on NCI-H226, in the assay with SN12C, with SW-620, in the assay with HCC 2998, in the assay with UO-31 and in the assay with SF-268 was > 100 µM (inactive) throughout. The GI50 with HOP-92, with A498, in the assay with MCF7, in the assay on LOX IMVI and in the assay with HL-60 was > 100 µM (inactive) in each case.
For `CCC1CN2CCc3cc(OC)c(OC)cc3C2CC1CC1c2cc(OC)c(OC)cc2CCN1C(=O)C(N)Cc1ccccc1.[O-][Cl+3]([O-])([O-])O` (stereo not given), the GI50 was 2.75 µM (inactive) in the assay with TK-10; 2.42 µM (inactive) with NCI-H23; 0.305 µM (active) with HCT-116; 4.16 µM (inactive) in the assay with OVCAR-3; 0.423 µM (active) in the assay with SR; 2.56 µM (inactive) with SF-539. Besides, the GI50 with DMS-273 is 1.98 µM (inactive); with M14, 0.628 µM (active); with HT-29 it was 0.486 µM (active); in the assay with SN12C it was 2.35 µM (inactive); in the assay on SW-620 it was 0.49 µM (active); in the assay on HCC 2998, 0.564 µM (active). Moreover, the GI50 in the assay with UO-31 is 2.13 µM (inactive); in the assay with SF-268, 3.37 µM (inactive); in the assay on HOP-92 it was 1.19 µM (inactive); in the assay on A498, 3.24 µM (inactive); in the assay on LOX IMVI, 0.386 µM (active); in the assay on HL-60, 1.59 µM (inactive).
Consider `CSC(=S)N(C)c1nc(N(C)C)s[s+]1`, for which the GI50 in the assay with TK-10, in the assay on NCI-H23, in the assay on HCT-116, in the assay on SR, in the assay on SF-539 and in the assay with DMS-273 was > 100 µM (inactive) in each case. In addition, the GI50 in the assay with M14, with HT-29, with NCI-H226, in the assay with SN12C, with SW-620 and in the assay with HCC 2998 was > 100 µM (inactive) in each case. Further, the GI50 with UO-31 is > 100 µM (inactive); in the assay with SF-268, > 100 µM (inactive); in the assay with HOP-92, > 100 µM (inactive); in the assay with A498, 44.4 µM (inactive); with HL-60 it was 65.2 µM (inactive).
As to `C=C1CC(OC)(C(OC)C(=O)N(C)[C@H]2OCO[C@H]3C2O[C@H](C[C@@H](COC)OC)C(C)(C)C3OC)O[C@H](C)[C@@H]1C` (stereo not given in full), the GI50 in the assay with NCI-H23 was 9.57 µM (inactive); in the assay with HCT-116, 9.44 µM (inactive); in the assay on OVCAR-3, 10 µM (inactive); in the assay with SF-539, 14.2 µM (inactive); in the assay on DMS-273, 6.9 µM (inactive); with HT-29, 5.77 µM (inactive). The GI50 with NCI-H226 was 6.19 µM (inactive); in the assay on SN12C it was 22.5 µM (inactive); with SW-620, 14 µM (inactive); in the assay on HCC 2998, 10.8 µM (inactive); with UO-31, 15.7 µM (inactive); with SF-268, 4.6 µM (inactive). The GI50 in the assay with A498 was 12 µM (inactive); in the assay on MCF7 it was 5.3 µM (inactive); with LOX IMVI, 5.68 µM (inactive); in the assay with HL-60, 15.9 µM (inactive).
For the compound `CN1CCC(c2c(O)cc(O)c3c(=O)cc(-c4ccccc4Cl)oc23)C(O)C1` (stereo not given), the GI50 was 0.219 µM (active) in the assay with TK-10; 0.0557 µM (active) in the assay on NCI-H23; < 0.01 µM (active) in the assay on HCT-116; 0.0247 µM (active) in the assay on SR; 0.0929 µM (active) in the assay with SF-539; 0.0335 µM (active) with DMS-273. Further, the GI50 in the assay on M14 was 0.111 µM (active); in the assay with HT-29, 0.156 µM (active); in the assay on NCI-H226 it was 0.0336 µM (active); in the assay with SN12C, 0.143 µM (active); in the assay with SW-620, 0.0339 µM (active); in the assay on HCC 2998, 0.165 µM (active). Also, the GI50 with UO-31 was 0.0303 µM (active); in the assay with SF-268, 0.0467 µM (active); in the assay on HOP-92, 0.0194 µM (active); in the assay with A498, 0.117 µM (active); in the assay with LOX IMVI, 0.0173 µM (active); in the assay on HL-60, 0.0197 µM (active).
For `COc1cc(O)c(Cc2ccccc2O)c(O)c1C(=O)CCc1ccccc1` [UVARETIN], the GI50 in the assay with NCI-H23 was 4.17 µM (inactive); in the assay on HCT-116, 4.31 µM (inactive); in the assay with OVCAR-3, 4.58 µM (inactive); in the assay with SF-539 it was 5.41 µM (inactive); in the assay on DMS-273, 4.39 µM (inactive); in the assay on HT-29 it was 11.9 µM (inactive). Further, the GI50 in the assay on NCI-H226 was 6.62 µM (inactive); in the assay on SN12C it was 4.82 µM (inactive); in the assay with SW-620 it was 7.23 µM (inactive); in the assay on HCC 2998 it was 6.1 µM (inactive); with UO-31, 6.21 µM (inactive); in the assay on SF-268, 7.01 µM (inactive). The GI50 with HOP-92 was 3.99 µM (inactive); in the assay with A498, 1.48 µM (inactive); with MCF7 it was 5.81 µM (inactive); in the assay on LOX IMVI, 6.05 µM (inactive); in the assay on HL-60, 4.43 µM (inactive).
